In ChEMBL document CHEMBL1143816, “Daptomycin produces an enhanced bactericidal activity compared to ceftriaxone, measured by [3H]choline release in the cerebrospinal fluid, in experimental meningitis due to a penicillin-resistant pneumococcal strain without lysing its cell wall” (2007):
Converted amounts (≈) assume the structure as drawn.

How the values were obtained:
Format in all cases: functional
Streptococcus pneumoniae [1] = test: Antimicrobial activity against Streptococcus pneumoniae WB4 by broth macrodilution method
Streptococcus pneumoniae [2] = test: Antimicrobial activity in Streptococcus pneumoniae WB4 infected New Zealand white rabbit meningitis model assessed as decrease in viable cells in CSF at 15 mg/kg after 8 hrs
Streptococcus pneumoniae [3] = test: Antimicrobial activity in Streptococcus pneumoniae WB4 infected New Zealand white rabbit meningitis model assessed as increase in [3H]choline release in CSF at 15 mg/kg after 4 hrs
Streptococcus pneumoniae [4] = test: Antimicrobial activity in Streptococcus pneumoniae WB4 infected New Zealand white rabbit meningitis model assessed as decrease in viable cells in CSF at 125 mg/kg after 8 hrs
Streptococcus pneumoniae [5] = test: Antimicrobial activity in Streptococcus pneumoniae WB4 infected New Zealand white rabbit meningitis model assessed as increase in [3H]choline release in CSF at 125 mg/kg after 4 to 6 hrs

SMILES	MIC (Streptococcus pneumoniae [1]) [µg/mL]	log10CFU/ml (Streptococcus pneumoniae [2])	Activity (Streptococcus pneumoniae [3]) [cpm/min]	log10CFU/ml (Streptococcus pneumoniae [4])	Activity (Streptococcus pneumoniae [5]) [cpm/min]
CCCCCCCCCC(=O)N[C@@H](Cc1c[nH]c2ccccc12)C(=O)N[C@H](CC(N)=O)C(=O)N[C@@H](CC(=O)O)C(=O)N[C@@H]1C(=O)NCC(=O)N[C@@H](CCCN)C(=O)N[C@@H](CC(=O)O)C(=O)N[C@H](C)C(=O)N[C@@H](CC(=O)O)C(=O)NCC(=O)N[C@H](CO)C(=O)N[C@@H]([C@H](C)CC(=O)O)C(=O)N[C@@H](CC(=O)c2ccccc2N)C(=O)O[C@@H]1C	0.06 (≈ 0.037 µM)	-6.64	250		
CO/N=C(\C(=O)NC1C(=O)N2C(C(=O)O)=C(COC(C)=O)CS[C@H]12)c1csc(N)n1 (single isomer, unassigned) [CEFOTAXIME]	1 (≈ 2.2 µM)				
CO/N=C(\C(=O)N[C@@H]1C(=O)N2C(C(=O)O)=C(CSc3nc(=O)c(O)nn3C)CS[C@H]12)c1csc(N)n1 [CEFTRIAXONE]	0.5 (≈ 0.902 µM)			-4.04	2500
COc1c(N2C[C@@H]3CCCN[C@@H]3C2)c(F)cc2c(=O)c(C(=O)O)cn(C3CC3)c12 [MOXIFLOXACIN]	0.12 (≈ 0.299 µM)				
CN[C@H](CC(C)C)C(=O)N[C@H]1C(=O)N[C@@H](CC(N)=O)C(=O)N[C@H]2C(=O)N[C@H]3C(=O)N[C@H](C(=O)N[C@H](C(=O)O)c4cc(O)cc(O)c4-c4cc3ccc4O)[C@H](O)c3ccc(c(Cl)c3)Oc3cc2cc(c3O[C@@H]2O[C@H](CO)[C@@H](O)[C@H](O)[C@H]2O[C@H]2C[C@](C)(N)[C@H](O)[C@H](C)O2)Oc2ccc(cc2Cl)[C@H]1O [VANCOMYCIN]	0.12 (≈ 0.0828 µM)				
